Legend:
[1] = serum stability, HIC HPLC; type: in vitro ADME; conditions: human serum, 0.2 mg/mL, 37° C.
Protocol: Serum stability of prototypical P2PDox conjugate, hRS7-P2PDox, was determined by incubating in human serum at a concentration of 0.2 mg/mL at 37° C.

[2] = test system: NCI-N87 human gastric carcinoma xenografts; assay: therapy of NCI-N87 xenografts in nude mice; type: in vivo; conditions: for mean tumor volume (mTV) on day 21: starting mTV 0.256 cm^3
Protocol: FIG. 3A. Therapy in nude mice bearing s.c. human tumor xenografts using 2.25 mg/kg protein dose (0.064 mg/kg of drug dose) of MAb-P2PDox conjugates twice weekly×2 weeks in nude mice (n=7) with NCI-N87 human gastric carcinoma xenografts.
(§1) Tumor size was determined by caliper measurements of length (L) and width (W) with tumor volume calculated as (L×W^2)/2. Tumors were measured and mice weighed twice a week. Mice were euthanized if their tumors reached >1 cm^3 in size, lost greater than 15% of their starting body weight, or otherwise became moribund. Statistical analysis for the tumor growth data was based on area under the curve (AUC) and survival time. Profiles of individual tumor growth were obtained through linear curve modeling. An f-test was employed to determine equality of variance between groups prior to statistical analysis of growth curves. A two-tailed t-test was used to assess statistical significance between all the various treatment groups and non-specific controls. For the saline control analysis a one-tailed t-test was used to assess significance. Survival studies were analyzed using Kaplan-Meier plots (log-rank analysis), using the Prism GraphPad Software (v4.03) software package (Advanced Graphics Software, Inc.; Encinitas, Calif.). All doses in preclinical experiments are expressed in antibody amounts. In terms of drug, 100 μg of antibody (5 mg/kg) in a 20-g mouse, for example, carries 1.4 μg-2.8 μg ([…]) of P2PDox equivalent dose when using an ADC with 3-6 drugs/IgG.
(§2) Using this dosing regimen, we examined the therapeutic effect of hRS7-P2PDox in 2 human tumor xenograft models, Capan-1 (pancreatic cancer) and NCI-N87 (gastric cancer). Therapy began 7 days after tumor transplantation in nude mice.
(§3) Anti-TROP-2 antibody conjugate, hRS7-P2PDox, was evaluated in nude mice bearing NCI-N87 human gastric cancer xenografts by administering a single bolus protein dose of 9 mg/kg, 6.75 mg/kg, 4.5 mg/kg, 2.25 mg/kg, or 1 mg/kg. The therapy was started when the mean tumor volume (mTV) was 0.256 cm^3.
Further in vivo efficacy studies were performed in nude mice implanted with NCI-N87 human gastric cancer xenografts (FIG. 13A-F).
The effect of varying dosage schedule on anti-tumor efficacy was examined (FIG. 14, FIG. 19A-G). The experiment began 9 days after tumor implantation when mean tumor volume for all groups was 0.383 cm^3, and ended on day 93 (84 days after initiation of therapy).

[3] = test system: Capan-1 human pancreatic adenocarcinoma xenografts; assay: therapy of Capan-1 xenografts in nude mice; type: in vivo
Protocol: FIG. 2. Therapy in nude mice bearing s.c. human tumor xenografts using 2.25 mg/kg protein dose (0.064 mg/kg of drug dose) of MAb-P2PDox conjugates twice weekly×2 weeks in nude mice with Capan-1 human pancreatic adenocarcinoma xenografts (n=5).
Tumors were measured and mice weighed twice a week.
At 63 days after Capan-1 tumor injection (with therapy starting at 1 days post-innoculation), 0 of 10 mice were alive in the saline control, 10 of 10 mice were alive in mice treated twice weekly×2 weeks with 45 μg of hPAM4-P2PDox, 2 of 10 mice were alive in mice treated twice weekly×2 weeks with 45 μg of hA20-P2PDox, 0 of 10 mice were alive in mice treated twice weekly×4 weeks with 250 μg of hPAM4-SN-38, and 0 of 10 mice were alive in mice treated twice weekly×4 weeks with 250 μg of h20-SN-38.

[4] = PK in normal mice, serum antibody by ELISA; type: in vivo; conditions: drug substitution 6.8 or 3.7 vs unmodified hRS7
Protocol: These were analyzed by ELISA for antibody concentration. […] The PK parameters (Cmax, AUC, etc.) were similar.

[5] = test system: gastric (NCI-N87), pancreatic (Capan-1), and breast (MDA-MB-468) human cancer cell lines; assay: 4-day MTS assay, potency of the conjugate; type: cell-based; conditions: range over NCI-N87, Capan-1 and MDA-MB-468
Protocol: Retention of antibody binding was confirmed by cell binding assays comparing binding of the conjugate to unconjugated antibody (Chari, 2008, Acc Chem Res 41:98-107). The potency of the conjugate was tested in a 4-day MTS assay using appropriate target cells.

[6] = test system: MDA-MB-468 human breast carcinoma xenografts; assay: therapy of MDA-MB-468 xenografts in nude mice; type: in vivo
[7] = test system: triple-negative breast cancer; assay: treatment of triple-negative breast cancer patients; type: in vivo, human
Protocol: P2PDox-hRS7 ADC is prepared as described in Examples 1 and 3 above. Patients with triple-negative breast cancer who had failed at least two standard therapies receive 3 cycles of 70 mg P2PDox-hRS7 injected i.v. every 3 weeks. Objective responses are observed at this dose level of P2PDox-hRS7, with an average decrease in tumor volume of 35%, after two cycles of therapy. All serum samples evaluated for human anti-hRS7 antibody (HAHA) are negative.

[8] = tolerability / toxicity of hRS7-P2PDox in mice
Protocol: as §1, §2
Conjugates were prepared and evaluated with mean drug/MAb substitution ratios (MSRs) of ˜6:1 and ˜3:1. Groups of normal mice (n=5) were administered, i.v., single doses of unmodified hRS7 or hRS7-P2PDox with drug substitution of 6.8 or 3.7 (same protein dose), and serum samples were collected at 30 min, 4 h, 24 h, 72 h, and 168 h post-injection. These were analyzed by ELISA for antibody concentration.
as §3

hRS7-P2PDox
release of free drug from the conjugate [1]: no release of free drug
mice alive at day 94 ([2]; 45 μg q4dx4): 8 of 9
mice alive at day 94 ([2]; 90 μg weekly×2): 9 of 9
effect of 2nd course of therapy ([2]; 2nd course administered after day 70): safely tolerated and led to further regressions of residual tumor
effect on tumors, one treatment cycle ([2]; 4×45 μg): rapidly regressed all tumors
effect of second treatment cycle ([2]; second cycle about 2 months after the end of the first cycle): complete regression of all but one
minimum effective dose ([2]; single bolus protein dose): 2.25 mg/kg
mean tumor volume (mTV) on day 21 ([2]; single bolus protein dose 2.25 mg/kg): 0.567±0.179 cm^3
mean tumor volume (mTV) on day 21 ([2]; single bolus protein dose 4.5 mg/kg): 0.264±0.087 cm^3
mean tumor volume (mTV) on day 21 ([2]; single bolus protein dose 9 mg/kg): 0.211±0.042 cm^3
minimum single dose for significant survival benefit compared to saline control ([2]; single dose): 45 µg
single dose giving maximum effect on tumor growth ([2]; single dose): ≥ 90 µg
mice alive at day 94 ([2]; single dose of 180 μg): 78 of 9
established tumors regressed ([3]; 4 doses of 45 μg in 2 weeks, therapy began 7 days after transplantation, no re-growth): 100%
inhibition of tumor growth compared with the SN-38 conjugate of the same antibody ([3]; not shown): more effective at inhibiting tumor growth
PK parameters (Cmax, AUC, etc.) [4]: similar
serum concentrations at various times ([4]; single i.v. dose, 30 min to 168 h): no significant differences in serum concentrations
IC50 [5]: 0.35 to 1.09 nM
antitumor effects ([6]; 2.25 mg/kg protein dose twice weekly×2 weeks): specific and significant antitumor effects
inhibition of growth compared with hRS7-SN-38 ([6]; not shown): slightly more effective
average decrease in tumor volume ([7]; 70 mg i.v. every 3 weeks, after two cycles of therapy): 35%
human anti-hRS7 antibody (HAHA) in serum samples ([7]; human, in vivo): negative
toxicity of the three dosage schedules ([8]; 45 μg q4dx4, 90 μg weekly×2, single 180 μg (not shown)): similarly low levels of toxicity
tolerability of 4 doses of 45 μg given in 2 weeks ([8]; 4 doses of 45 μg in 2 weeks): tolerated by all animals
MTD ([8]; single bolus protein dose, nude mice bearing NCI-N87): 9 mg/kg
lethal single i.v. dose ([8]; single i.v. dose, antibody amount [~10 μg of P2PDox]): ≥ 300 µg

Reference: patent US9486536B2 (Immunomedics, Inc., priority 2013, dated 2016)
